Measured values: patent publication US10597388B2, “Pyridazinone herbicides” (FMC CORPORATION, priority 2014, dated 2020)

Columns and labels:
Format in all cases: in vivo
[1] = test system: morningglory (Ipomoea coccinea); assay: Test C greenhouse herbicide test, pre- and postemergence
Description: (§1) Seeds of plant species selected from blackgrass (Alopecurus myosuroides), ryegrass, Italian (Italian ryegrass, Lolium multiflorum), wheat (winter wheat, Triticum aestivum), galium (catchweed bedstraw, Galium aparine), corn (Zea mays), large crabgrass, large (large crabgrass, Digitaria sanguinalis), foxtail, giant (giant foxtail, Setaria faberii), johnsongrass (Sorghum halepense), lambsquarters (Chenopodium album), morningglory (Ipomoea coccinea), nutsedge, yellow (yellow nutsedge, Cyperus esculentus), pigweed (Amaranthus retroflexus), ragweed (common ragweed, Ambrosia elatior), soybean (Glycine max), barnyardgrass (Echinochloa crus-galli), oilseed rape (Brassica napus), waterhemp (common waterhemp, Amaranthus rudis), and velvetleaf (Abutilon theophrasti) were planted into a blend of loam soil and sand and treated preemergence with test chemicals formulated in a non-phytotoxic solvent mixture which included a surfactant.
(§2) At the same time, plants selected from these crop and weed species and also chickweed (common chickweed, Stellaria media), kochia (Kochia scoparia), and oat, wild (wild oat, Avena fatua), were planted in pots containing Redi-Earth® planting medium (Scotts Company, 14111 Scottslawn Road, Marysville, Ohio 43041) comprising spaghnum peat moss, vermiculite, wetting agent and starter nutrients and treated with postemergence applications of test chemicals formulated in the same manner. Plants ranged in height from 2 to 18 cm (1- to 4-leaf stage) for postemergence treatments. Treated plants and controls were maintained in a greenhouse for 13 to 15 d, after which time all species were compared to controls and visually evaluated. Plant response ratings, summarized in Table C, are based on a scale of 0 to 100 where 0 is no effect and 100 is complete control. A dash (-) response means no test result.

soybean (Glycine max) = assay: as above
Description: as §1, §2

[2] = test system: waterhemp (common waterhemp, Amaranthus rudis); assay: as above
Description: as §1, §2

[3] = test system: ragweed (common ragweed, Ambrosia elatior); assay: as above
Description: as §1, §2

[4] = test system: foxtail, giant (giant foxtail, Setaria faberii); assay: as above
Description: as §1, §2

[5] = test system: blackgrass (Alopecurus myosuroides); assay: as above
Description: as §1, §2

[6] = test system: velvetleaf (Abutilon theophrasti); assay: as above
Description: as §1, §2

[7] = test system: galium (catchweed bedstraw, Galium aparine); assay: as above
Description: as §1, §2

[8] = test system: oilseed rape (Brassica napus); assay: as above
Description: as §1, §2

[9] = test system: pigweed (Amaranthus retroflexus); assay: as above
Description: as §1, §2

corn (Zea mays) = assay: as above
Description: as §1, §2

[10] = test system: barnyardgrass (Echinochloa crus-galli); assay: as above
Description: as §1, §2

[11] = test system: wheat (winter wheat, Triticum aestivum); assay: as above
Description: as §1, §2

[12] = test system: johnsongrass (Sorghum halepense); assay: as above
Description: as §1, §2

[13] = test system: crabgrass, large (large crabgrass, Digitaria sanguinalis); assay: as above
Description: as §1, §2

kochia (Kochia scoparia) = assay: Test C greenhouse herbicide test, postemergence
Outline: (§3)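 Seedlings are raised in pots of peat moss–vermiculite medium with starter nutrients, then receive postemergence test chemical at the 1- to 4-leaf stage. They are kept in the greenhouse 13 to 15 d and scored visually versus controls, 0 meaning no effect and 100 complete control.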

[14] = test system: oat, wild (wild oat, Avena fatua); assay: Test C greenhouse herbicide test, postemergence
Outline: as §3

[15] = Postemergence, 31 g ai/ha, 0 to 100 scale (0 no effect, 100 complete control)
[16] = Postemergence, 125 g ai/ha, scale 0 to 100, 0 is no effect, 100 is complete control
[17] = Postemergence, 250 g ai/ha, scale 0 to 100, 0 no effect, 100 complete control, 13 to 15 d
[18] = Preemergence, 31 g ai/ha, scale 0 to 100, 0 is no effect, 100 is complete control
[19] = Preemergence, 62 g ai/ha, scale 0 to 100, 0 is no effect, 100 is complete control
[20] = Preemergence, 125 g ai/ha, scale 0 to 100, 0 is no effect, 100 is complete control
[21] = Preemergence, 250 g ai/ha, scale 0 to 100 (0 no effect, 100 complete control)
[22] = postemergence, 62 g ai/ha, scale 0 to 100, 0 no effect, 100 complete control

Structure (SMILES): CC(=O)Oc1c(C)nn(C)c(=O)c1-c1c(C)sc2c(C)cc(C)cc12 [Compound 27]
- Morningglory plant response rating [1, 15]: 100
- Plant response rating, Morningglory [1, 16]: 100
- Plant response rating, Morningglory [1, 17]: 100
- Plant response rating, Morningglory [1, 18]: 85
- Plant response rating, Morningglory [1, 19]: 98
- Plant response rating, Morningglory [1, 20]: 100
- Morningglory plant response rating [1, 21]: 100
- Morningglory plant response rating [1, 22]: 100
- Soybean plant response rating (soybean (Glycine max); [15]): 0
- Plant response rating, Soybean (soybean (Glycine max); [16]): 0
- Plant response rating, Soybean (soybean (Glycine max); [17]): 0
- Plant response rating, Soybean (soybean (Glycine max); [19]): 0
- Plant response rating, Soybean (soybean (Glycine max); [20]): 10
- Soybean plant response rating (soybean (Glycine max); [21]): 0
- Soybean plant response rating (soybean (Glycine max); [22]): 0
- Waterhemp plant response rating [2, 15]: 65
- Plant response rating, Waterhemp [2, 16]: 10
- Plant response rating, Waterhemp [2, 17]: 90
- Plant response rating, Waterhemp [2, 19]: 85
- Plant response rating, Waterhemp [2, 20]: 100
- Waterhemp plant response rating [2, 21]: 100
- Waterhemp plant response rating [2, 22]: 60
- Ragweed plant response rating [3, 15]: 70
- Plant response rating, Ragweed [3, 16]: 85
- Plant response rating, Ragweed [3, 17]: 90
- Plant response rating, Ragweed [3, 18]: 80
- Plant response rating, Ragweed [3, 19]: 100
- Plant response rating, Ragweed [3, 20]: 100
- Ragweed plant response rating [3, 21]: 95
- Ragweed plant response rating [3, 22]: 75
- Foxtail, Giant plant response rating [4, 15]: 60
- Plant response rating, Foxtail, Giant [4, 16]: 90
- Plant response rating, Foxtail, Giant [4, 17]: 95
- Plant response rating, Foxtail, Giant [4, 18]: 100
- Plant response rating, Foxtail, Giant [4, 19]: 100
- Plant response rating, Foxtail, Giant [4, 20]: 100
- Foxtail, Giant plant response rating [4, 21]: 100
- Foxtail, Giant plant response rating [4, 22]: 75
- Blackgrass plant response rating [5, 15]: 50
- Plant response rating, Blackgrass [5, 16]: 85
- Plant response rating, Blackgrass [5, 17]: 90
- Plant response rating, Blackgrass [5, 18]: 85
- Plant response rating, Blackgrass [5, 19]: 90
- Plant response rating, Blackgrass [5, 20]: 90
- Blackgrass plant response rating [5, 21]: 90
- Blackgrass plant response rating [5, 22]: 70
- Velvetleaf plant response rating [6, 15]: 80
- Plant response rating, Velvetleaf [6, 16]: 90
- Plant response rating, Velvetleaf [6, 17]: 95
- Plant response rating, Velvetleaf [6, 19]: 85
- Plant response rating, Velvetleaf [6, 20]: 85
- Velvetleaf plant response rating [6, 21]: 98
- Velvetleaf plant response rating [6, 22]: 85
- Galium plant response rating [7, 15]: 100
- Plant response rating, Galium [7, 16]: 100
- Plant response rating, Galium [7, 17]: 100
- Plant response rating, Galium [7, 18]: 90
- Plant response rating, Galium [7, 19]: 95
- Plant response rating, Galium [7, 20]: 95
- Galium plant response rating [7, 21]: 95
- Galium plant response rating [7, 22]: 100
- Oilseed Rape plant response rating [8, 15]: 5
- Plant response rating, Oilseed Rape [8, 16]: 80
- Plant response rating, Oilseed Rape [8, 17]: 70
- Plant response rating, Oilseed Rape [8, 18]: 5
- Plant response rating, Oilseed Rape [8, 19]: 95
- Plant response rating, Oilseed Rape [8, 20]: 98
- Oilseed Rape plant response rating [8, 21]: 98
- Oilseed Rape plant response rating [8, 22]: 70
- Pigweed plant response rating [9, 15]: 55
- Plant response rating, Pigweed [9, 16]: 85
- Plant response rating, Pigweed [9, 17]: 90
- Plant response rating, Pigweed [9, 18]: 98
- Plant response rating, Pigweed [9, 19]: 100
- Plant response rating, Pigweed [9, 20]: 98
- Pigweed plant response rating [9, 21]: 100
- Pigweed plant response rating [9, 22]: 80
- Corn plant response rating (corn (Zea mays); [15]): 0
- Plant response rating, Corn (corn (Zea mays); [16]): 0
- Plant response rating, Corn (corn (Zea mays); [17]): 15
- Plant response rating, Corn (corn (Zea mays); [18]): 0
- Plant response rating, Corn (corn (Zea mays); [19]): 0
- Plant response rating, Corn (corn (Zea mays); [20]): 5
- Corn plant response rating (corn (Zea mays); [21]): 0
- Corn plant response rating (corn (Zea mays); [22]): 5
- Barnyardgrass plant response rating [10, 15]: 15
- Plant response rating, Barnyardgrass [10, 16]: 25
- Plant response rating, Barnyardgrass [10, 17]: 50
- Plant response rating, Barnyardgrass [10, 18]: 55
- Plant response rating, Barnyardgrass [10, 19]: 80
- Plant response rating, Barnyardgrass [10, 20]: 90
- Barnyardgrass plant response rating [10, 21]: 90
- Barnyardgrass plant response rating [10, 22]: 20
- Wheat plant response rating [11, 15]: 0
- Plant response rating, Wheat [11, 16]: 5
- Plant response rating, Wheat [11, 17]: 5
- Plant response rating, Wheat [11, 19]: 0
- Plant response rating, Wheat [11, 20]: 0
- Wheat plant response rating [11, 21]: 10
- Wheat plant response rating [11, 22]: 0
- Johnsongrass plant response rating [12, 15]: 10
- Plant response rating, Johnsongrass [12, 17]: 10
- Plant response rating, Johnsongrass [12, 18]: 0
- Plant response rating, Johnsongrass [12, 19]: 5
- Plant response rating, Johnsongrass [12, 20]: 5
- Johnsongrass plant response rating [12, 21]: 25
- Johnsongrass plant response rating [12, 22]: 0
- Crabgrass, Large plant response rating [13, 15]: 5
- Plant response rating, Crabgrass, Large [13, 16]: 30
- Plant response rating, Crabgrass, Large [13, 17]: 45
- Plant response rating, Crabgrass, Large [13, 18]: 55
- Plant response rating, Crabgrass, Large [13, 19]: 80
- Plant response rating, Crabgrass, Large [13, 20]: 95
- Crabgrass, Large plant response rating [13, 21]: 98
- Crabgrass, Large plant response rating [13, 22]: 25
- Kochia plant response rating (kochia (Kochia scoparia); [15]): 75
- Plant response rating, Kochia (kochia (Kochia scoparia); [16]): 90
- Plant response rating, Kochia (kochia (Kochia scoparia); [17]): 90
- Kochia plant response rating (kochia (Kochia scoparia); [22]): 80
- Oat, Wild plant response rating [14, 15]: 85
- Plant response rating, Oat, Wild [14, 16]: 95
- Plant response rating, Oat, Wild [14, 17]: 100
- Oat, Wild plant response rating [14, 22]: 95
